Measurements as given in patent publication US10519131B2, “Benzazepine compounds, conjugates, and uses thereof” (SILVERBACK THERAPEUTICS, INC., priority 2017, dated 2019).

Assays:
[1] = test system: Human peripheral blood mononuclear cells (PBMC); experiment: PBMC screening assay, TNF-α in supernatant; assay type: cell-based; settings: 24 hours, TNF-α in supernatant by ELISA or HTRF
Method: Human peripheral blood mononuclear cells (PBMC) were obtained from BenTek, frozen at 25×10^6 cell/mL in 10% DMSO (Sigma) prepared in fetal bovine serum (Gibco) and stored in liquid nitrogen. For culture PBMC were thawed quickly in a 37° C. water bath and diluted into pre-warmed RPMI 1640 (Lonza) supplemented with 10% fetal bovine serum, 2 mM glutamine, 50 μg/mL penicillin, 50 U/mL streptomycin (all from Gibco) and centrifuged for 5 minutes at 500×g. PBMC were suspended into the growth media described above and cultured at a concentration of 1×10^6 cells per mL at 37° C. in a 5% CO2 incubator.
PBMC were thawed, suspended at a concentration of 1×10^6 cell/mL in growth media and 200 μL was aliquoted into each well of a 96-well plate for a total of 0.2×10^6 cells per well. PBMC were incubated for 16-18 hours at 37° C. in a 5% CO2 humidified incubator. The following day PBMC plates were centrifuged at 500×g for 5 minutes and the growth media was removed. […] TNF-α activity was assessed in the supernatant by ELISA (eBioscience) or HTRF (CisBio) per the manufacturer's instructions. Optical density at 450 nm and 570 nm (ELISA) or luminescence (HTRF) was analyzed using an Envision (Perkin Elmer) plate reader, as shown in Table 5.

[2] = test system: human monocytes injected intratumorally; experiment: Antigen dependent monocyte activation in a mouse tumor model; assay type: in vivo, NOD SCID mice; settings: 5-20 mg/kg intravenously
Method: Human monocytes were prepared as described above. Trop2^+ MDA-MB-453 cells or Trop2-MiaPaca2 were cultured by standard methods. A TLR8 benzazepine linker payload (LP) was prepared by attaching a MCC (N-maleimidomethyl]cyclohexane-1-carboxylate) linker in place of the mc-vc-PABA linker in Compound-Linker 2.1 to form Compound-Linker 2.22. TROP2-TLR8 benzazepine conjugates were prepared by conjugation of Compound-Linker 2.22 to a TROP2 antibody (sacituzumab) to form a conjugate with an average DAR of about 4.
On Day 1 NOD SCID mice were injected with 5×10^5 Trop2^+ MDA-MB-453 cells or Trop2-MiaPaca2 cells. Seven to ten days later when the tumor size reached about 300 mm^3, the mice were injected intravenously with 5-20 mg/kg of the TROP2-TLR8 benzazepine conjugate or TROP2 antibody alone. Sixteen hours later, 10^6 human monocytes were injected intratumorally. Four to six hours later, the tumors were harvested and digested. Monocytes were identified by staining for cell surface markers and monocyte activation was determined by intracellular staining for IL-6.

| Compound | EC50 [1] [nM] | human monocyte activation (intracellular staining for IL-6) ([2]; mice having a TROP2-tumor (MiaPaca2)) | human monocyte activation (intracellular staining for IL-6) ([2]; mice having a TROP2^+ tumor (MDA-MB-453)) |
| --- | --- | --- | --- |
| CCCN(CCC)C(=O)C1=Cc2ccc(C(=O)NC3C[C@@H]3c3ccccc3)cc2N=C(N)C1 (stereo partly shown) [Compound 1.28] | < 500 | – | – |
| CCCN(CCC)C(=O)C1=Cc2ccc(C(=O)Nc3ccc4c(c3)CN(C(=O)OCc3ccccc3)CC4)cc2N=C(N)C1 [Compound 1.30] | < 500 | – | – |
| control antibody: "TROP2 antibody alone" (sacituzumab) in Example 16; elsewhere the unconjugated parental aTROP2 or aHER2 antibody | – | did not cause human monocyte activation | did not cause human monocyte activation |
